Measured values reported in patent publication US20100267561A1, “HERBICIDAL PYRIDAZINONE DERIVATIVES” (priority 2007, published 2010).

What was measured:
Test in all cases: Test B pre-/postemergence plant response
Type in all cases: in vivo
[1] = system: Italian ryegrass (Lolium multiflorum)
Method in brief: (§1)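 Preemergence and postemergence (plants 2-18 cm, 1- to 4-leaf stage) applications used test chemicals in a non-phytotoxic solvent with surfactant. Plants were held in a greenhouse 13 to 15 days, then rated visually against controls on a 0-100 scale (0 no effect, 100 complete control).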

[2] = system: Russian thistle (Salsola iberica); conditions: Preemergence; for Russian Thistle plant response rating: scale 0 to 100
Method in brief: as §1

[3] = system: catchweed bedstraw (Galium aparine); conditions: Preemergence; for Galium plant response rating: scale 0 to 100
Method in brief: as §1

[4] = system: cocklebur (Xanthium strumarium); conditions: for Cocklebur plant response rating: 8 g ai/ha
Method in brief: as §1

[5] = system: common ragweed (Ambrosia elation)
Method in brief: as §1

corn (Zea mays) = system: corn (Zea mays)
Method in brief: as §1

[6] = system: eastern black (E.B.) nightshade (Solanum ptycanthum); conditions: Preemergence; for Nightshade, E. B. plant response rating: scale 0 to 100
Method in brief: as §1

[7] = system: green foxtail (Setaria viridis)
Method in brief: as §1

kochia (Kochia scoparia) = conditions: for Kochia plant response rating: postemergence, 0-100 scale; for Plant response rating, Kochia: Postemergence
Method in brief: as §1

[8] = system: lambsquarters (Chenopodium album); conditions: for Lambsquarters plant response rating: postemergence, 0-100 scale; for Plant response rating, Lambsquarters: Postemergence
Method in brief: as §1

[9] = system: morningglory (Ipomoea coccinea)
Method in brief: as §1

[10] = system: surinam grass (Brachiaria decumbens)
Method in brief: as §1

wild oat (Avena fatua) = system: wild oat (Avena fatua)
Method in brief: as §1

[11] = system: yellow nutsedge (Cyperus esculentus)
Method in brief: as §1

[12] = 8 g ai/ha, postemergence, 0-100 scale
[13] = 16 g ai/ha, postemergence, 0-100 scale
[14] = Postemergence, 31 g ai/ha, scale 0 to 100
[15] = Postemergence, 62 g ai/ha, scale 0 to 100, 0 no effect, 100 complete control
[16] = Preemergence, 31 g ai/ha, scale 0 to 100 (0 no effect, 100 complete control)
[17] = Preemergence, 62 g ai/ha, 0 to 100 scale, 0 no effect, 100 complete control
[18] = Preemergence, 8 g ai/ha, scale 0 to 100
[19] = Preemergence, 16 g ai/ha, scale 0 to 100
[20] = 31 g ai/ha, scale 0 to 100 (0 no effect, 100 complete control)
[21] = 62 g ai/ha, 0 to 100 scale, 0 no effect, 100 complete control
[22] = Postemergence, 16 g ai/ha, scale 0 to 100
[23] = 62 g ai/ha, scale 0 to 100, 0 no effect, 100 complete control

Cc1cc(-c2ccc(Cl)cc2)nn1-c1c(OC(=S)N(C)C)cnn(C)c1=O [Compound 69]
15: Plant response rating, Surinam Grass [10, 16]
95: Plant response rating, Foxtail, Green [7, 15] | Plant response rating, Kochia (kochia (Kochia scoparia); 31 g ai/ha, scale 0 to 100) | Plant response rating, Surinam Grass [10, 15]
40: Plant response rating, Foxtail, Green [7, 16] | Oat, Wild plant response rating (wild oat (Avena fatua); [13]) | Plant response rating, Oat, Wild (wild oat (Avena fatua); [17])
80: Plant response rating, Foxtail, Green [7, 22] | Plant response rating, Surinam Grass [10, 14]
100: Plant response rating, Ryegrass, Italian [1, 15] | Plant response rating, Ryegrass, Italian [1, 17] | Plant response rating, Ragweed [5, 16] | Plant response rating, Ragweed [5, 17] | Plant response rating, Foxtail, Green [7, 17]
60: Plant response rating, Ryegrass, Italian [1, 16] | Foxtail, Green plant response rating [7, 12]
90: Plant response rating, Foxtail, Green [7, 14] | Plant response rating, Oat, Wild (wild oat (Avena fatua); [14]) | Plant response rating, Oat, Wild (wild oat (Avena fatua); [15])
98: Plant response rating, Ryegrass, Italian [1, 14] | Ragweed plant response rating [5, 19] | Plant response rating, Kochia (kochia (Kochia scoparia); [23])
0: Ryegrass, Italian plant response rating [1, 18] | Plant response rating, Russian Thistle [2, 20] | Plant response rating, Russian Thistle [2, 21] | Russian Thistle plant response rating ([2]; 8 g ai/ha) | Russian Thistle plant response rating ([2]; 16 g ai/ha) | Plant response rating, Galium [3, 20] | Plant response rating, Galium [3, 21] | Galium plant response rating ([3]; 8 g ai/ha) | Galium plant response rating ([3]; 16 g ai/ha) | Cocklebur plant response rating ([4]; postemergence, 0-100 scale) | Plant response rating, Cocklebur [4, 22] | Plant response rating, Cocklebur [4, 14] | Plant response rating, Cocklebur [4, 15] | Plant response rating, Cocklebur ([4]; Preemergence, 16 g ai/ha, scale 0 to 100 (0 no effect, 100 complete control)) | Plant response rating, Cocklebur [4, 16] | Plant response rating, Cocklebur [4, 17] | Cocklebur plant response rating ([4]; Preemergence, scale 0 to 100) | Ragweed plant response rating [5, 12] | Ragweed plant response rating [5, 13] | Plant response rating, Ragweed [5, 14] | Plant response rating, Ragweed [5, 15] | Ragweed plant response rating [5, 18] | Corn plant response rating (corn (Zea mays); [12]) | Plant response rating, Corn (corn (Zea mays); [22]) | Plant response rating, Corn (corn (Zea mays); [14]) | Plant response rating, Corn (corn (Zea mays); [16]) | Plant response rating, Corn (corn (Zea mays); [17]) | Corn plant response rating (corn (Zea mays); [18]) | Corn plant response rating (corn (Zea mays); [19]) | Plant response rating, Nightshade, E. B. [6, 20] | Plant response rating, Nightshade, E. B. [6, 21] | Nightshade, E. B. plant response rating ([6]; 8 g ai/ha) | Nightshade, E. B. plant response rating ([6]; 16 g ai/ha) | Foxtail, Green plant response rating [7, 18] | Foxtail, Green plant response rating [7, 19] | Kochia plant response rating (kochia (Kochia scoparia); 8 g ai/ha) | Kochia plant response rating (kochia (Kochia scoparia); 16 g ai/ha) | Lambsquarters plant response rating ([8]; 8 g ai/ha) | Lambsquarters plant response rating ([8]; 16 g ai/ha) | Plant response rating, Lambsquarters ([8]; 31 g ai/ha, scale 0 to 100) | Plant response rating, Lambsquarters [8, 23] | Morningglory plant response rating [9, 12] | Morningglory plant response rating [9, 13] | Plant response rating, Morningglory [9, 14] | Plant response rating, Morningglory [9, 15] | Plant response rating, Morningglory [9, 16] | Plant response rating, Morningglory [9, 17] | Morningglory plant response rating [9, 18] | Morningglory plant response rating [9, 19] | Surinam Grass plant response rating [10, 18] | Surinam Grass plant response rating [10, 19] | Oat, Wild plant response rating (wild oat (Avena fatua); [18]) | Oat, Wild plant response rating (wild oat (Avena fatua); [19]) | Nutsedge, Yellow plant response rating [11, 12] | Nutsedge, Yellow plant response rating [11, 13] | Plant response rating, Nutsedge, Yellow [11, 14] | Plant response rating, Nutsedge, Yellow [11, 15] | Plant response rating, Nutsedge, Yellow [11, 16] | Plant response rating, Nutsedge, Yellow [11, 17] | Nutsedge, Yellow plant response rating [11, 18] | Nutsedge, Yellow plant response rating [11, 19]
65: Surinam Grass plant response rating [10, 12]
75: Surinam Grass plant response rating [10, 13]
55: Ryegrass, Italian plant response rating [1, 13]
20: Ryegrass, Italian plant response rating [1, 19] | Plant response rating, Corn (corn (Zea mays); [15]) | Oat, Wild plant response rating (wild oat (Avena fatua); [12]) | Plant response rating, Oat, Wild (wild oat (Avena fatua); [16])
35: Plant response rating, Surinam Grass [10, 17]
10: Ryegrass, Italian plant response rating [1, 12]
